{
  "source": "patent US20030118673A1",
  "about": "“Smilagenin and anzurogenin-D for the treatment of alzheimer's disease” (priority 1998, published 2003)",
  "key": {"[1]": {"system": "m2 receptors on CHO cells", "sequence (P08172 whole entry, the tested form may be a part)": "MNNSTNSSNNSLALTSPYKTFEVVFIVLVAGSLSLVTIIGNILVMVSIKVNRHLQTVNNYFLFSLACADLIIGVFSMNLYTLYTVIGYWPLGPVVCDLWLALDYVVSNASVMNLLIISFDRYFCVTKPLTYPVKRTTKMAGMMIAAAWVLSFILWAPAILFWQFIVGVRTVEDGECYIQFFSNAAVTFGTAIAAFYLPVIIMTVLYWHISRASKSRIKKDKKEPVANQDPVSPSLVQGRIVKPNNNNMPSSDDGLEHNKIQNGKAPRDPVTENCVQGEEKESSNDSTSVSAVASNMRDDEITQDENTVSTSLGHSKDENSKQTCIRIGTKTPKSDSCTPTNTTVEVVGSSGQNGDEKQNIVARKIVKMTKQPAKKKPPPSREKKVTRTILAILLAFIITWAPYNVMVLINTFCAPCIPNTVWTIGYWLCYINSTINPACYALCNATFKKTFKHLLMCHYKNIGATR", "assay": "Expression of m2 receptors on transfected CHO cells (tritiated QNB binding)", "format": "cell-based, Chinese hamster", "settings": "for Antagonism by tamoxifen of the increase in muscarinic receptor number: in the presence of tamoxifen; for Effect on receptor expression, given as % increase compared to control (negative values in brackets): DMSO control", "experimental": "1. Chinese hamster ovary (CHO) cells transfected with the a DNA fragment coding for a muscarinic receptor. The cell line used for the majority of the experiments was a cell line expressing the m2 receptor.\n1 CHO cell line experiments The effects of various compounds on the expression of m2 receptors on CHO cells transfected with DNA for the m2 receptor were investigated. Receptor. numbers were assayed using tritiated QNB binding and subtracting non-specific binding. Compounds were dissolved in DMSO and DMSO was used as a control. Compounds were tested at a range of final concentrations. Compounds were also tested in the presence and absence of tamoxifen to try to distinguish an estrogen receptor mediated mechanism. The results are summarized in the Table 2 below, where the compounds used in the invention appear in bold, and data on other sapogenins is given for comparative purposes: […]"}, "[2]": {"system": "muscarinic receptors on cardiac muscle cells", "assay": "Muscarinic receptor expression on cultured neonatal cardiac muscle cells (tritiated QNB binding)", "format": "cell-based, Sprague Dawley rats", "source_text": "3. Cultured cardiac muscle cells obtained from neonatal Sprague Dawley rats. The cardiac muscle cells express muscarinic receptors, typically m2. The level of these receptors falls on prolonged culture and the effects of compounds of interest in preventing the fall in receptor numbers was investigated.\n3 Effects of compounds on cultured cardiac muscle cells. Cardiac muscle cells were isolated from the ventricular muscle of neonatal Sprague Dawley rats using standard techniques. Cells were cultured in vitro and muscarinic receptor numbers expressed on cell surfaces membrane fragments after homogenization of cells harvested at various time points were estimated using specific binding of tritiated QNB. […] The experiments were therefore designed to investigate the effects of the various compounds in inhibiting this decline in receptor numbers."}, "estrogen receptor": {"system": "estrogen receptor", "assay": "Estrogenic activity", "source_text": "(§1) In identifying compounds that would have use in the treatment of SDAT and other diseases characterised by reductions in receptor numbers or synaptic transmission, the inventors have given consideration to the need to identify compounds that would have the desired effect but would be devoid of any estrogenic effects, as these would be unacceptable, particularly in male patients. A number of the compounds claimed to have activity in patent application DE 4303214A1 have marked estrogenic activity and are therefore unacceptable."}, "Progesterone receptor": {"molecular_target": "T1, Progesterone receptor (Homo sapiens, UniProt P06401)", "T1 sequence (P06401 1-933)": "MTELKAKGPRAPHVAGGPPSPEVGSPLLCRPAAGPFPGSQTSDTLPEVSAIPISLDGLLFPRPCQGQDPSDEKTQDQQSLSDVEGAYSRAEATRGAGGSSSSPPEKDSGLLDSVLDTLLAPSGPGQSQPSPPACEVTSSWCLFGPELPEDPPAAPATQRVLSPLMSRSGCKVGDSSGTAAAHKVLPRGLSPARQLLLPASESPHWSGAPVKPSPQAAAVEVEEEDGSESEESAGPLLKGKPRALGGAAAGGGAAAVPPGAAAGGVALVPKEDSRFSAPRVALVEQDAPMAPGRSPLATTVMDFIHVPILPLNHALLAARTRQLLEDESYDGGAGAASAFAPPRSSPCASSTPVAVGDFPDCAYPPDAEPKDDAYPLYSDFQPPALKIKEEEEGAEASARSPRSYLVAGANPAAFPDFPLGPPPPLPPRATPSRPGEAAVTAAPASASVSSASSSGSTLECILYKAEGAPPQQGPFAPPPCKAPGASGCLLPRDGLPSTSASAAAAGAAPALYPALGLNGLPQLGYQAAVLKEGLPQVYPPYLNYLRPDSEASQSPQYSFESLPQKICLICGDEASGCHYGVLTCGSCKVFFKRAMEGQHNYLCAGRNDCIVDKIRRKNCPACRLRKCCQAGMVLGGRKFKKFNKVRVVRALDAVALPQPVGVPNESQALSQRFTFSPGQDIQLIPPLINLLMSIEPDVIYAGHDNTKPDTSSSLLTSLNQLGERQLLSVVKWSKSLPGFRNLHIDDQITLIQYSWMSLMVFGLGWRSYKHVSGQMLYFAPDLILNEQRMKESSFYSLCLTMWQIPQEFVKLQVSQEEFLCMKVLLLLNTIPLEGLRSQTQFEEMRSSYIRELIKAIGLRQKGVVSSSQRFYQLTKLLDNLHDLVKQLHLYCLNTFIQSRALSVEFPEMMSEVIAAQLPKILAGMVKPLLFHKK", "assay": "Activity at progesterone receptor", "source_text": "as §1"}, "Glucocorticoid receptor": {"molecular_target": "T2, Glucocorticoid receptor (Homo sapiens, UniProt P04150)", "T2 sequence (P04150 1-777)": "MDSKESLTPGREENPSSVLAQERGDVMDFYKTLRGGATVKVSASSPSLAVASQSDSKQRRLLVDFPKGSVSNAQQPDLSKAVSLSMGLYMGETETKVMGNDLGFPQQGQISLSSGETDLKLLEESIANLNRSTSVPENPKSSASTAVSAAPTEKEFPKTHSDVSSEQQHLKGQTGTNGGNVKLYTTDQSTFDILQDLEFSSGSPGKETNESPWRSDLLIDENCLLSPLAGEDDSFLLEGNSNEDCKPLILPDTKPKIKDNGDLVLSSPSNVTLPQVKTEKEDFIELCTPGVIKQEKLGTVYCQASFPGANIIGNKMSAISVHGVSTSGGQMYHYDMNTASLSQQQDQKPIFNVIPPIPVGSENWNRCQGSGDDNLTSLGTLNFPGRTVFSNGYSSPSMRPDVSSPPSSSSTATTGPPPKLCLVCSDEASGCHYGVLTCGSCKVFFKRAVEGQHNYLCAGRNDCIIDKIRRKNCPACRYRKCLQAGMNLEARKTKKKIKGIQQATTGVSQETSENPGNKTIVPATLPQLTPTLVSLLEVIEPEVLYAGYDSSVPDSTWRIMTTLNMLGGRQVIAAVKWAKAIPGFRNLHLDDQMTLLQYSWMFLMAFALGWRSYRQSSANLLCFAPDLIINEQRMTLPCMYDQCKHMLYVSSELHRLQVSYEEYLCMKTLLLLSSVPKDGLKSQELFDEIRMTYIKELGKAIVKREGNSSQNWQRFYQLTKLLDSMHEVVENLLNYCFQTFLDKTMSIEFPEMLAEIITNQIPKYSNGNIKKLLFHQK", "assay": "Activity at glucocorticoid receptor", "source_text": "as §1"}, "Testosterone receptor": {"molecular_target": "T3, Testosterone receptor (Homo sapiens, UniProt P10275)", "T3 sequence (P10275 1-920)": "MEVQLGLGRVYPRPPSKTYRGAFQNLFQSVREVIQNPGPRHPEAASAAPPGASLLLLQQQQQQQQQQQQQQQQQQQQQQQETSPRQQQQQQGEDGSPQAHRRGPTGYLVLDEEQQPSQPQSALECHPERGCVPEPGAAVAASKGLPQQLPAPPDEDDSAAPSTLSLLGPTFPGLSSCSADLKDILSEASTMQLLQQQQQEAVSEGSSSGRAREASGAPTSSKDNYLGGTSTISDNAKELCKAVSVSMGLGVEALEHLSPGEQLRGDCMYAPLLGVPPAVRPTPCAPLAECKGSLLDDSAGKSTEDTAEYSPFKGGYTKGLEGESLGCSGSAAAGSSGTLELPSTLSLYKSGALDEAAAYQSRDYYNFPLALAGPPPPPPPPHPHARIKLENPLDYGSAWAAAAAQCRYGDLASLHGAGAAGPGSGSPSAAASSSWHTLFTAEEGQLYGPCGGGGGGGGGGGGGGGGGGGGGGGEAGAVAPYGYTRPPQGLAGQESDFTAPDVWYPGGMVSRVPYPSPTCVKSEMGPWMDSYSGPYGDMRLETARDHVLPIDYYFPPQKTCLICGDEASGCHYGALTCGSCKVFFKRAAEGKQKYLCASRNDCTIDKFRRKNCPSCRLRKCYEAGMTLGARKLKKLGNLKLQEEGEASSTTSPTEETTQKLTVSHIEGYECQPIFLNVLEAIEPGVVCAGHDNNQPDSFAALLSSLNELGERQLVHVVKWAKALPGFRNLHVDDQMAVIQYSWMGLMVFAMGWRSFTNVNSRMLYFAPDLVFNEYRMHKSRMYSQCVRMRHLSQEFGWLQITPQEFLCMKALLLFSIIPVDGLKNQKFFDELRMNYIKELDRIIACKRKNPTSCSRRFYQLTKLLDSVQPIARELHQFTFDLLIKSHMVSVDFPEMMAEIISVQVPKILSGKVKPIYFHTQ", "assay": "Activity at testosterone receptor", "source_text": "as §1"}, "[3]": {"settings": "molar concentration of compound 10^−5"}},
  "data": [
    {"molecule": "Smilagenin", "values": [
      {"measurement": "Antagonism by tamoxifen of the increase in muscarinic receptor number", "setting": "[1]", "result": "not antagonized by tamoxifen"},
      {"measurement": "Effect on receptor expression, given as % increase compared to control (negative values in brackets)", "setting": "[1]; [3]", "result": 57, "unit": "%"},
      {"measurement": "Effect on receptor expression, given as % increase compared to control (negative values in brackets)", "setting": "[1]; molar concentration of compound 10^−6", "result": 18, "unit": "%"},
      {"measurement": "Concentration of compound causing a significant increase in number of receptors expressed on neonatal cardiac muscle after 10 days in vitro culture", "setting": "[2]", "result": "10^−6 M"},
      {"measurement": "Estrogenic activity", "setting": "estrogen receptor", "result": "do not display estrogenic activity"},
      {"measurement": "Activity at progesterone receptor", "setting": "Progesterone receptor", "result": "neither compound was found to have any activity"},
      {"measurement": "Activity at glucocorticoid receptor", "setting": "Glucocorticoid receptor", "result": "neither compound was found to have any activity"},
      {"measurement": "Activity at testosterone receptor", "setting": "Testosterone receptor", "result": "neither compound was found to have any activity"}
    ]},
    {"molecule": "Astragaloside [reference compound]", "values": [
      {"measurement": "Concentration of compound causing a significant increase in number of receptors expressed on neonatal cardiac muscle after 10 days in vitro culture", "setting": "[2]", "result": "10^−5 M"}
    ]},
    {"molecule": "C[C@H]1CC[C@@]2(OC1)O[C@H]1C[C@H]3[C@@H]4CC[C@@H]5C[C@@H](O)CC[C@]5(C)[C@H]4CC[C@]3(C)[C@H]1[C@@H]2C", "note": "[Sarsasapogenin, reference compound]", "values": [
      {"measurement": "Effect on receptor expression, given as % increase compared to control (negative values in brackets)", "setting": "[1]; [3]", "result": 34, "unit": "%"},
      {"measurement": "Concentration of compound causing a significant increase in number of receptors expressed on neonatal cardiac muscle after 10 days in vitro culture", "setting": "[2]", "result": "10^−5 M"}
    ]},
    {"molecule": "C[C@@H]1CC[C@@]2(OC1)O[C@H]1C[C@H]3[C@@H]4C[C@@H](O)[C@@]5(O)C[C@@H](O)CC[C@]5(C)[C@H]4CC[C@]3(C)[C@H]1[C@@H]2C", "note": "[Anzurogenin D, Anzurogenin-D]", "values": [
      {"measurement": "Antagonism by tamoxifen of the increase in muscarinic receptor number", "setting": "[1]", "result": "not antagonized by tamoxifen"},
      {"measurement": "Effect on receptor expression, given as % increase compared to control (negative values in brackets)", "setting": "[1]; [3]", "result": 22, "unit": "%"},
      {"measurement": "Concentration of compound causing a significant increase in number of receptors expressed on neonatal cardiac muscle after 10 days in vitro culture", "setting": "[2]", "result": "10^−6 M"},
      {"measurement": "Estrogenic activity", "setting": "estrogen receptor", "result": "do not display estrogenic activity"},
      {"measurement": "Activity at progesterone receptor", "setting": "Progesterone receptor", "result": "neither compound was found to have any activity"},
      {"measurement": "Activity at glucocorticoid receptor", "setting": "Glucocorticoid receptor", "result": "neither compound was found to have any activity"},
      {"measurement": "Activity at testosterone receptor", "setting": "Testosterone receptor", "result": "neither compound was found to have any activity"}
    ]}
  ]
}
